Test [1] deals with T1, ADP-ribosylation factor GTPase-activating protein 1 (Homo sapiens, UniProt Q8N6T3). The test is described as follows: Inhibition of ARFGAP1 (unknown origin) at 10 uM relative to control.
For test [2], the target named is T1, ADP-ribosylation factor GTPase-activating protein 1. The experiment in a line: Inhibition of ARFGAP1 (unknown origin).
The subject of test [3] is MDA-MB-231. The experiment in a line: Inhibition of cell migration in human MDA-MB-231 cells at 2.5 uM measured after 12 hrs by transwell migration assay. The test is classed as functional.

T1 sequence (Q8N6T3 whole entry): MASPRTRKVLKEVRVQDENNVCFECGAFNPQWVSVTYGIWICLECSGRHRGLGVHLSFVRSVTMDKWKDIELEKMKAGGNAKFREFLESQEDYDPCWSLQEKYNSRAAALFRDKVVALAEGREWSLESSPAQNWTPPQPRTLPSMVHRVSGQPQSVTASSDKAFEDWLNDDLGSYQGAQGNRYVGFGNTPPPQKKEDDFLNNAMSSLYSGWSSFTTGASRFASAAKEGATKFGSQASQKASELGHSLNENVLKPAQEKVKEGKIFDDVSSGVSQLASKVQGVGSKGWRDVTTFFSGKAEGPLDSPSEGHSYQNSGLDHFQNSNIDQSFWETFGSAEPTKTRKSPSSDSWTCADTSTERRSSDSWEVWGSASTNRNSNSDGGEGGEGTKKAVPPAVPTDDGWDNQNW

Regarding `FC(F)(F)c1cccc(Oc2nc(NCCc3cccc4ccccc34)c3ncn(Cc4ccc(-c5ccccc5)cc4)c3n2)c1`, the inhibition (in general, the percentage by which the read-out fell short of the control) in test [1] is 67%.
For `OC[C@H](Cc1ccccc1)Nc1nc(Oc2ccc3c(c2)CCC3)nc2c1ncn2Cc1ccc(-c2ccccc2)cc1`, the EC50 – broadly, the concentration at which the effect is half-maximal – in test [2] came to 500 nM. The compound also registered an inhibition at 2.5 µM in test [3] of 80%. This compound also yielded an inhibition in test [1] of 84%.
